Where a SMILES comes first, the peptide text is derived from it. [ ]: non-standard residue; d: D form. The star is where a group is joined. Sta = CC(C)C[C@H](N)[C@@H](O)CC(=O)O; Isovaleryl = CC(C)CC(=O)*
Assays:
T1 mature lipase [1] = assay: Effect of metal ions, surfactants and inhibitors on lipase activity; format: biochemical, Geobacillus sp. strain T1; conditions: for Effect of metal ion on lipase activity: 1 mM, after 30 min of treatment; for Effect of metal ion on lipase activity / Inhibition of lipase activity / Effect of inhibitor on lipase activity: 50° C.; for Inhibition of lipase activity: metal ion 1 mM, after 30 min; for Effect of inhibitor on lipase activity: 5 mM (Pepstatin 1 mM), 30 min; for Effect of surfactant on lipase activity: 0.1%
Procedure: The T1 lipase was tested at temperatures ranging from 40° C. to 80° C. at 5° C. intervals for 30 min for enzyme activity. The thermostability test was conducted at various temperatures for different hours. Recombinant T1 lipase was also kept at a wide range of pH values ranging from pH 4-12 for pH activity and stability determination. The buffer systems used were 50 mM acetate buffer (pH 4-6), potassium phosphate buffer (pH 6-8), Tris-HCl buffer (pH 8-9), glycine-NaOH buffer (pH 9-11), and Na2HPO3/NaOH buffer (pH 11-12). The effect of effectors (metal ions, surfactants) and inhibitors were studied at a concentration of 1 mM and 5 mM, respectively at 50° C. for 30 min with an exceptional for pepstatin (1.0 mM).
The effect of metal ion at final concentration of 1 mM was tested by treatment at 50° C. for 30 min. […] The effect of surfactants on lipase activity on lipase activity was studied at concentration of 0.1% (FIG. 6).
The effect of inhibitors on lipase activity on several metal chelating agent, reducing agents, serine and aspartate inhibitors were used to study the inhibition effect to T1 mature lipase.

T1 mature lipase [2] = assay: as above; format: biochemical, Geobacillus sp. strain T1; conditions: 1 mM, 50° C., after 15 min of treatment
P1 lipase = conditions: 10 mM of PMSF; cited from earlier work

Row | Compound | Effect of metal ion on lipase activity (T1 mature lipase [1]) | Effect of inhibitor on lipase activity (T1 mature lipase [1]) | also measured
1 | [Ca+2] [Ca^2+] | stabilizing effect | – | –
2 | [Cu+2] [Cu^2+] | – | – | Inhibition of lipase activity (T1 mature lipase [1]): 52%
3 | O[C@@H](CS)[C@@H](O)CS [DTT] | – | little inhibition effect | –
4 | O=C(O)CN(CCN(CC(=O)O)CC(=O)O)CC(=O)O [EDTA] | – | slightly effect | –
5 | [Fe+2] [Fe^2+] | – | – | Inhibition of lipase activity (T1 mature lipase [1]): 60%
6 | [K+] [K^+] | stabilizing effect | – | Effect of metal ion on lipase activity (T1 mature lipase [2]): slightly enhanced
7 | [Mg+2] [Mg^2+] | stabilizing effect | – | –
8 | [Mn+2] [Mn^2+] | stabilizing effect | – | Effect of metal ion on lipase activity (T1 mature lipase [2]): slightly enhanced
9 | [Na+] [Na^+] | – | – | Effect of metal ion on lipase activity (T1 mature lipase [2]): slightly enhanced
10 | O=S(=O)(F)Cc1ccccc1 [PMSF] | – | strongly inhibited | Inhibition of P1 lipase (P1 lipase): 77%
11 | CC(C)CC(=O)N[C@H](C(=O)N[C@H](C(=O)N[C@@H](CC(C)C)[C@@H](O)CC(=O)N[C@@H](C)C(=O)N[C@@H](CC(C)C)[C@@H](O)CC(=O)O)C(C)C)C(C)C [Pepstatin] (Isovaleryl-VV[Sta]A[Sta]-OH) | – | strongly inhibited | –
12 | [Zn+2] [Zn^2+] | stabilizing effect | – | –
13 | OCCS [β-mercaptoethanol] | – | little inhibition effect | –
14 | Tween | – | – | Effect of surfactant on lipase activity (T1 mature lipase [1]): obvious enhancement; Effect of surfactant on lipase activity (T1 mature lipase [1]; listed as Tween 20-80): enhancement effect

— patent US7319029B2, “Lipase from Geobacillus sp. strain T1” (Universiti Purta Malaysia, priority 2004, dated 2008)
